As usually defined, the IC50 is the concentration at which inhibition is half-maximal. High values mean lower potency, low ones higher potency.

Where a name gives a salt, the structure may show the parent alone.

The target in the experiment is T1, DP receptor (Homo sapiens, UniProt Q13258).
T1 construct: the human cell line LS174T, which expresses the endogenous DP receptor; endogenous in cells; host or cells: LS174T human cell line
T1 sequence (Q13258 1-359): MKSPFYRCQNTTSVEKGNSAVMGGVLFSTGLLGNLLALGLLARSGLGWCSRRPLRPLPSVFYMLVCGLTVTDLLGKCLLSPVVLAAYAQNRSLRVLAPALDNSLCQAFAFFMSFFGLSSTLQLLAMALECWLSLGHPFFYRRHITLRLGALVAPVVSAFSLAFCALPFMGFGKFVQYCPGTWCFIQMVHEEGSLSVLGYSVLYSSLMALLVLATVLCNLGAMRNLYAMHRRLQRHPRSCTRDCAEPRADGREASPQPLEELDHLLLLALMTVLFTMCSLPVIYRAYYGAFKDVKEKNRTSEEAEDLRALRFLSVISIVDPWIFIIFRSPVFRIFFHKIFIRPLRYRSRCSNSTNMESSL
Nature of the experiment: SPA cAMP assay in human LS174 T cells (human DP functional assay). In kind it is cell-based. Conditions: inhibition of PGD2 (15 nM final) stimulated cAMP, LS174T cells expressing endogenous DP receptor. The method, boiled down:
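LS174T cells with endogenous DP receptor, 45,000/well seeded overnight, exposed to compounds at 11 points for 15 min at 37 °C in buffer containing IBMX, with PGD2 stimulation.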
In general terms: Cyclic AMP is a second messenger, typically raised through Gs and lowered through Gi signalling.
For `COc1nc(NC2CCc3ccccc32)cc(-c2cccc(C(C)(C)C(=O)O)c2)n1` (stereo not shown) [Example 83(a), 2-{3-[6-(Indan-1-ylamino)-2-methoxy-pyrimidin-4-yl]-phenyl}-2-methyl-propionic acid], inhibition was half-maximal at 83 nM (IC50).

For `COc1nc(NCCc2ccc(OC(F)(F)F)cc2)cc(-c2cccc(C3(C(=O)NS(C)(=O)=O)CCOCC3)c2)n1` [Example 84(a), N-[4-(3-{2-Methoxy-6-[2-(4-trifluoromethoxy-phenyl)-ethylamino]-pyrimidin-4-yl}-phenyl)-tetrahydro-pyran-4-carbonyl]-methanesulfonamide], the IC50 was found to be 0.7 nM.

With `COC(=O)C1(c2cccc(-c3cc(NCCc4ccc(OC(F)(F)F)cc4)nc(OC)n3)c2)CCOCC1` [Example 84(b), 4-(3-{2-Methoxy-6-[2-(4-trifluoromethoxy-phenyl)-ethylamino]-pyrimidin-4-yl}-phenyl)-tetrahydro-pyran-4-carboxylic acid methyl ester], it took 70 nM to reach half-maximal inhibition (IC50).

As for `COCc1nc(NCCc2ccc(Cl)cc2Cl)cc(-c2cccc(C(C)(C)C(=O)O)c2)n1` [Example 85, 2-(3-{6-[2-(2,4-Dichloro-phenyl)-ethylamino]-2-methoxymethyl-pyrimidin-4-yl}-phenyl)-2-methyl-propionic acid], the IC50 is 2.7 nM.

Turning to `CC(C)(C(=O)O)c1cccc(-c2cc(NCCc3ccc(Cl)cc3Cl)nc(CO)n2)c1` [Example 86, 2-(3-{6-[2-(2,4-dichloro-phenyl)-ethylamino]-2-hydroxymethyl-pyrimidin-4-yl}-phenyl)-2-methyl-propionic acid], the IC50 came to 71 nM.

`COc1nc(NCCc2ccc(Cl)cc2Cl)cc(-c2ccc(C(=O)O)s2)n1` [Example 87, 5-{6-[2-(2,4-Dichloro-phenyl)-ethylamino]-2-methoxy-pyrimidin-4-yl}-thiophene-2-carboxylic acid] yielded an IC50 of 0.16 nM.

Turning to `COc1nc(NCCc2ccc(OC(F)(F)F)cc2)cc(-c2ccc3c(c2)CC(C(=O)O)O3)n1` (stereo not shown) [Example 88, 5-{2-Methoxy-6-[2-(4-trifluoromethoxy-phenyl)-ethylamino]-pyrimidin-4-yl}-2,3-dihydro-benzofuran-2-carboxylic acid hydrochloride], the IC50 was found to be 3.1 nM.

The compound `COc1nc(NCCc2ccc(Cl)cc2Cl)cc(-c2cccc(C(C)(C)C(=O)OCC(O)CO)c2)n1` (stereo not shown) [Example 89, 2-(3-{6-[2-(2,4-Dichloro-phenyl)-ethylamino]-2-methoxy-pyrimidin-4-yl}-phenyl)-2-methyl-propionic acid 2,3-dihydroxy-propyl ester] had a concentration for half-maximal inhibition (IC50) of 18 nM.

Consider `COc1nc(NCC2OCCc3ccccc32)cc(-c2cccc(C(C)(C)C(=O)O)c2)n1` (stereo not shown) [Example 91, 2-(3-{6-[(Isochroman-1-ylmethyl)-amino]-2-methoxy-pyrimidin-4-yl}-phenyl)-2-methyl-propionic acid], for which the IC50 came to 23 nM.

In turn, `COc1nc(NCC2CN(C)c3ccccc3O2)cc(-c2cccc(C(C)(C)C(=O)O)c2)n1` (stereo not shown) [Example 92, 2-(3-{2-Methoxy-6-[(4-methyl-3,4-dihydro-2H-benzo[1,4]oxazin-2-ylmethyl)-amino]-pyrimidin-4-yl}-phenyl)-2-methyl-propionic acid] came in with an IC50 of 278 nM.

Take `COc1nc(NCCc2ccc(Cl)cc2Cl)cc(-c2ccc3nc(NC(C)=O)sc3c2)n1` [Example 94, N-(6-{6-[2-(2,4-Dichloro-phenyl)-ethylamino]-2-methoxy-pyrimidin-4-yl}-benzothiazol-2-yl)-acetamide]: the midpoint of inhibition, the IC50, lay at 11 nM.

`COc1nc(NCCc2ccc(Cl)cc2Cl)cc(-c2cccc(C(C)(C)C(=O)NS(=O)(=O)Cc3ccccc3)c2)n1` [Example 95(b), N-[2-(3-{6-[2-(2,4-Dichloro-phenyl)-ethylamino]-2-methoxy-pyrimidin-4-yl}-phenyl)-2-methyl-propionyl]-C-phenyl-methanesulfonamide]: the IC50 came out at 2 nM.

The compound `COc1nc(NCCc2ccc(Cl)cc2Cl)cc(-c2cccc(C(C)(C)C(=O)N3CCOCC3)c2)n1` [Example 95(c), 2-(3-{6-[2-(2,4-Dichloro-phenyl)-ethylamino]-2-methoxy-pyrimidin-4-yl}-phenyl)-2-methyl-1-morpholin-4-yl-propan-1-one] came in with an IC50 of 281 nM.

`COc1nc(NCCc2ccc(Cl)cc2Cl)cc(-c2cccc(C(C)(C)C(=O)NC3CCOCC3)c2)n1` [Example 95(d), 2-(3-{6-[2-(2,4-Dichloro-phenyl)-ethylamino]-2-methoxy-pyrimidin-4-yl}-phenyl)-N-(tetrahydro-pyran-4-yl)-isobutyramide] gave an IC50 of 278 nM.

Regarding `COc1nc(NCCc2ccc(Cl)cc2Cl)cc(-c2cccc(C(C)(C)C(=O)Nc3nnn[nH]3)c2)n1` [Example 95(e), 2-(3-{6-[2-(2,4-Dichloro-phenyl)-ethylamino]-2-methoxy-pyrimidin-4-yl}-phenyl)-N-(1H-tetrazol-5-yl)-isobutyramide], the IC50 is less than 1 nM.

For `COc1nc(NCCc2ccc(Cl)cc2Cl)cc(N2CCCC(c3nn[nH]n3)C2)n1` (stereo not shown) [Example 96, [2-(2,4-Dichloro-phenyl)-ethyl]-{2-methoxy-6-[3-(2H-tetrazol-5-yl)-piperidin-1-yl]-pyrimidin-4-yl}-amine], the IC50 came out at 5 nM.

The compound `COc1nc(NCCc2ccc(Cl)cc2Cl)cc(N2CCC(C(=O)O)CC2)n1` [Example 97, 1-{6-[2-(2,4-Dichloro-phenyl)-ethylamino]-2-methoxy-pyrimidin-4-yl}-piperidine-4-carboxylic acid] returned an IC50 of 7 nM.

The compound `COc1nc(NCCc2ccc(Cl)cc2Cl)cc(-c2ccc(Cl)c(C(C)(C)O)c2)n1` [Example 98, 2-(2-Chloro-5-{6-[2-(2,4-dichloro-phenyl)-ethylamino]-2-methoxy-pyrimidin-4-yl}-phenyl)-propan-2-ol] gave an IC50 of 110 nM.

Take `COc1nc(NCCc2ccc(Cl)cc2Cl)cc(-c2cc(C(C)(C)C(=O)O)ccc2F)n1` [Example 99, 2-(3-{6-[2-(2,4-Dichloro-phenyl)-ethylamino]-2-methoxy-pyrimidin-4-yl}-4-fluoro-phenyl)-2-methyl-propionic acid hydrochloride]: the IC50 stood at 0.5 nM.

Turning to `COc1ccc(CCNc2cc(OCc3ccccc3OC)nc(OC)n2)cc1` [Example (48), [2-Methoxy-6-(2-methoxy-benzyloxy)-pyrimidin-4-yl]-[2-(4-methoxy-phenyl)-ethyl]-amine hydrochloride], half-maximal inhibition (IC50) was put at 12 nM.

As for `COC(=O)c1cccc(Oc2cc(NCCc3ccc(OC)c(OC)c3)nc(OC)n2)c1` [Example (63), 3-{6-[2-(3,4-dimethoxy-phenyl)-ethylamino]-2-methoxy-pyrimidin-4-yloxy}-benzoic acid methyl ester], half-maximal inhibition (IC50) was put at 6250 nM.

As to `COc1nc(NCCc2ccc(OC(F)F)cc2)cc(-c2cccc(S(C)(=O)=O)c2)n1` [example 46(d), [2-(4-Difluoromethoxy-phenyl)-ethyl]-[6-(3-methanesulfonyl-phenyl)-2-methoxy-pyrimidin-4-yl]-amine hydrochloride], the midpoint of inhibition, the IC50, lay at 17 nM.

The record behind these values is patent publication US7517889B2, “2,6-substituted-4-monosubstitutedamino-pyrimidine as prostaglandin D2 receptor antagonists” (Aventis Pharmaceuticals, Inc., priority 2004, dated 2009).
